{
  "source": "patent US9730922B2",
  "about": "“Combined therapy for cystic fibrosis” (I.E.R.F.C. EUROPEAN INSTITUTE FOR CYSTIC FIBROSIS RESEARCH, priority 2012, dated 2017)",
  "key": {"ΔF508-CFTR [1]": {"target": "T1, ΔF508-CFTR (Homo sapiens, UniProt P13569, DEL508-508)", "T1 sequence (P13569 with tags, fused parts or gaps DEL508-508)": "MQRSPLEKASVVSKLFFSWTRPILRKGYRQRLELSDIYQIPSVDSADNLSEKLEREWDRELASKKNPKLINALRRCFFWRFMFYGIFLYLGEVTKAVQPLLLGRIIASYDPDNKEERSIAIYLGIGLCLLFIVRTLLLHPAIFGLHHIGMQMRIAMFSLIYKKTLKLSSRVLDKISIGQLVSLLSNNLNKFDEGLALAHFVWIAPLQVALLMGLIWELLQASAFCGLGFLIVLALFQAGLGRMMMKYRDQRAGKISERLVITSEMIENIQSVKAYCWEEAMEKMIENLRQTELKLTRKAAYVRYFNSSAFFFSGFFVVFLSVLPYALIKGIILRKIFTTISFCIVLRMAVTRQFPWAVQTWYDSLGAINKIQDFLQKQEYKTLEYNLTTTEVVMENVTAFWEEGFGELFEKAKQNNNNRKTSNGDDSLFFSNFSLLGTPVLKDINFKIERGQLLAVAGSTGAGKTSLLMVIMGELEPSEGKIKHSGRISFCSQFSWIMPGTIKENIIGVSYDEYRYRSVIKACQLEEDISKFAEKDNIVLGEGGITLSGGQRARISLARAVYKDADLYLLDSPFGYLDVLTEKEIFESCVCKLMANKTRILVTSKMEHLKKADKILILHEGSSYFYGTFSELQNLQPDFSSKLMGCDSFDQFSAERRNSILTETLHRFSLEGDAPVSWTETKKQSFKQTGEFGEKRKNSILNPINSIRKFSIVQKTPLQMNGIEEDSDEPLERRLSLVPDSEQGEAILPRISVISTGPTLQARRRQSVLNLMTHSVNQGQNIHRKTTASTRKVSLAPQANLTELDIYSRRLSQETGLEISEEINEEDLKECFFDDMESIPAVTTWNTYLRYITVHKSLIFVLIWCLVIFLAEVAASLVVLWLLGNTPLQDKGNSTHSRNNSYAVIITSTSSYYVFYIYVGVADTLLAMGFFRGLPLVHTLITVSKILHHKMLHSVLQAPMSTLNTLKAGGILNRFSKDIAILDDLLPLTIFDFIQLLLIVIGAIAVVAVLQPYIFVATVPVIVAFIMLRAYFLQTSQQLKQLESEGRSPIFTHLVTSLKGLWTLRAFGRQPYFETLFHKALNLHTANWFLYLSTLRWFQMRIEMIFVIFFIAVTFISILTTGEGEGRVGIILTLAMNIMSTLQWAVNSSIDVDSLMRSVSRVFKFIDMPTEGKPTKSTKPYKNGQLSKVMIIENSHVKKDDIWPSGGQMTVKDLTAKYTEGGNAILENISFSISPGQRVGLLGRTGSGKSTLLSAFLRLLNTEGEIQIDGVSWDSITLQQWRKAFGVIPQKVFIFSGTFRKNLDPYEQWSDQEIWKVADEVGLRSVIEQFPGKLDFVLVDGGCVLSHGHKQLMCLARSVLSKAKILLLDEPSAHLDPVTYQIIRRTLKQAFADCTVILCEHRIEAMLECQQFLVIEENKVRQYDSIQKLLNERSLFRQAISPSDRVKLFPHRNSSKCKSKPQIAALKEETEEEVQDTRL", "assay": "SPQ halide (iodide) efflux assay in freshly isolated brushed nasal epithelial cells", "format": "cell-based", "parameters": "Nasal epithelial cells freshly isolated by nasal brushing from 5 CF patients carrying ΔF508/ΔF508 CFTR mutations; endogenous in cells; host or cells: primary brushed nasal epithelial cells from ΔF508/ΔF508 CF patients", "settings": "18 h exposure, wash and reculture 24 h with medium; brushed nasal cells from ΔF508/ΔF508 patients", "description": "We examined whether cystamine or EUK-134 (Luciani A, 2010) would induce and sustain functional ΔF508-CFTR expression in freshly isolated brushed nasal epithelial cells from ΔF508/ΔF508 patients (Table 1A). We used primary nasal epithelial cells freshly obtained from ΔF508-CFTR homozygous patients, to directly test the efficacy of these autophagy-rescuing strategies on CFTR function in human airways. We used a fluorescent-based SPQ halide efflux assays (Silvis M R, 2009) to test the response to a short pulse of forskolin (FSK) added together with either of two different CFTR potentiators, genistein or VX-532, (Van Goor F, 2010) and analyzed at least 50 brushed nasal cells for group of treatment in each patient. Freshly isolated brushed nasal epithelial cells were incubated for 18 h with either cystamine or EUK-134 or with the well known CFTR correctors Corr-4a and VRT-325.\nNasal epithelial cells freshly isolated by nasal brushing from 5 CF patients carrying ΔF508/ΔF508 CFTR mutations (see Table 1A) and 5 non-CF age- and sex-matched controls (3 F, mean age 12.5 yrs) were immersed in washing solution (PBS, DTT 2 mM, EDTA 10 mM) at 37° C. for 1 h on thermal shaker, centrifuged at 2,300×g for 20 min and washed in PBS. The isolated cells were maintained in 1 ml MEM Earl's salt L-Glutamine medium supplemented with 10% FBS and the appropriate amount of penicillin/streptomycin.^31 Brushed nasal cells were cultured for 18 h with medium, Vrx-325, Corr-4a (10 μM up to 50 μM) (kindly provided by Cystic Fibrosis Foundation, USA), cystamine (250 μM, Sigma-Aldrich), EUK-134 (50 μg ml^−1, Vinci Biochem), followed by 24 h of incubation with medium alone.\nIodide efflux. […] Changes in CFTR-mediated SPQ fluorescence were monitored at the 445 nm wavelength in response to excitation at 340 nm during perfusion at 37° C. in nitrate buffer (NaI replaced with 130 mM NaNO3) for 10 min with 20 μM forskolin plus 50 μM genistein or 20 μM forskolin plus 20 μM VRX-532 (kindly provided by Cystic Fibrosis Foundation, USA). The peak iodide efflux rate (usually 12 min after forskolin plus genistein or forskolin plus Vrx-532) of treated or untreated cells was calculated in accordance with the Stern-Volmer relationship as follows: (Fo/F)−1=KCQ\nwhere F is the observed fluorescence, Fo is the fluorescence in the absence of a quenching anion, CQ is the concentration of the quenching anion, and K is the Stern-Volmer quench constant. The rates were calculated using SigmaPlot Version 7.1 for each mean fluorescence trace generated from the 50 cells examined per population per coverslip."}, "ΔF508-CFTR [2]": {"target": "T1, ΔF508-CFTR", "assay": "CFTR function in airway epithelial cell lines after pre-treatment, washout and pulse with potentiators", "format": "cell-based", "parameters": "airway epithelial cell lines carrying ΔF508/ΔF508 CFTR mutations; endogenous in cells", "settings": "for stimulating CFTR function (as potentiator): after pre-treatment with the mentioned molecules followed by 48 h of washout; for enabling the activity of genistein, VX-532 and VX-770 on ΔF508-CFTR: 48 h after withdrawal of the pre-treatment; for enabling the action of CFTR potentiators genistein or VX-532 in stimulating CFTR channel function: pre-treatment 18 h, washout 48 h, single pulse with potentiator, ΔF508/ΔF508 airway epithelial cell lines", "protocol": "To provide the rationale for the use of either TG2 inhibitors or drugs that reduce ROS levels as pre-treatment before the administration of CFTR potentiators, another experimental setting was used, where airway epithelial cell lines carrying ΔF508/ΔF508 CFTR mutations were treated with cystamine or EUK-134 or where TG2 was depleted by a small interference RNA approach or where ROS were reduced by the overexpression of the human Manganese Superoxide-dismutase (Mn-SOD).\nAnother experimental approach was used to test the efficacy of other pharmacological agents able to damp down TG2 and/or reduce the levels of ROS. […] These pharmacological agents were tested following the experimental approach of pre-treatment (18 h), washout (48 h) and single pulse with potentiators, in presence or absence of PA-LPS stimulation after pulse with potentiators, following the procedure above described.\nMoreover, the efficacy of other molecules endowed with either ROS inhibiting activity or potentiator activity was tested."}, "Cftr^F508del mice": {"system": "Cftr^F508del mice", "assay": "Cftr^F508del mice, CFTR localisation and lung inflammation", "format": "in vivo", "settings": "for signs of lung inflammation: wt littermates"}, "[3]": {"system": "nasal polyp biopsies from ΔF508/ΔF508 patients", "assay": "ex vivo cultures of nasal polyp mucosal biopsies (confocal microscopy, in situ TG2 activity)", "format": "cell-based, human", "description": "Nasal polyp biopsies from five ΔF508/ΔF508 patients (Table 1B) were treated with cystamine for 18 h, washed and then cultured for further 36 h in the absence of cystamine.\nNext, ΔF508/ΔF508 nasal polyp biopsies were pulsed for 30 min with genistein followed by 4 h incubation with PA-LPS. […] To examine whether pre-treatment with cystamine was effective in enabling the action of genistein in human airways, nasal polyp biopsies were incubated with cystamine or medium for 18 h, then washed and kept in medium alone for 24 h and finally pulsed for 30 min with genistein followed by 4 h PA-LPS.\nHuman samples: ex vivo cultures of nasal polyp mucosal biopsies. Nasal polyp biopsies from 5 ΔF508 homozygous patients undergoing surgical treatment for non-allergic nasal polyposis (see Table 1B) were cultured as previously described,^7,19,32 for 18 h with medium, cystamine or EUK-134, followed by 36 h of incubation with medium alone, and then pulsed for 30 min with medium or genistein followed by 4 h of PA-LPS challenge.\nHuman tissue sections: five-micrometer frozen human lung tissue sections were fixed in acetone for 10 min. The sections were incubated for 2 h at room temperature with the indicated antibodies (Abs). […] The primary Abs were: CFTR 1:100 (CF3, Abcam), CFTR 1:100 (H-182, Santa Cruz Biotecnology) (used on mouse tissue), phospho-Tyr 1:200 (Santa Cruz Biotecnology), p62 1:300 (Sigma). These were followed by incubation with Alexa 488 or 546 secondary antibodies (Molecular Probe, Invitrogen). Data were analyzed under fluorescence examination by a LSM510 Zeiss confocal laser-scanning unit (Carl Zeiss, Germany).\nIn situ detection of TG2 exzyme activity. TG2 activity in tissue samples was detected by incubating unfixed sections with biotinylated monodansylcadaverine for 1 h at 37° C. The incorporation of labeled substrate was visualized by incubation with Alexa 546-conjugated streptavidin (1:100; Molecular Probes, Invitrogen) for 30 min."}, "[4]": {"system": "ΔF508-CFTR homozygous airways", "settings": "mice in vivo and human tissues in vitro; cited from earlier work"}, "[5]": {"system": "ΔF508-CFTR homozygous patients", "settings": "cited from earlier work"}, "[6]": {"settings": "i.p. 7 days followed by 10 days of vehicle only"}},
  "data": [
    {"compound": "COc1ccc(Cl)cc1Nc1nc(-c2sc(NC(=O)c3ccccc3)nc2C)cs1", "note": "[Corr-4a]", "values": [
      {"measurement": "ΔF508-CFTR response to a short pulse of forskolin plus genistein or VX-532 (SPQ halide efflux)", "setting": "ΔF508-CFTR [1]", "result": "only had scarce effects"}
    ]},
    {"compound": "O=c1cc(-c2ccc(O)cc2)oc2cc(O)cc(O)c12", "note": "[apigenin]", "values": [
      {"measurement": "stimulating CFTR function (as potentiator)", "setting": "ΔF508-CFTR [2]", "result": "as effective as genistein in stimulating CFTR function"}
    ]},
    {"compound": "O=c1c(-c2ccc(O)cc2)coc2cc(O)cc(O)c12", "note": "[genistein]", "values": [
      {"measurement": "signs of lung inflammation after genistein pulse and aerosolized PA-LPS", "setting": "Cftr^F508del mice; mice not pretreated with cystamine", "result": "had no effect on its own"},
      {"measurement": "signs of lung inflammation after genistein pulse and aerosolized PA-LPS", "setting": "Cftr^F508del mice; mice pre-treated with aerosolized cystamine one week, one week without treatment", "result": "significantly reduced the signs of lung inflammation"},
      {"measurement": "signs of lung inflammation", "setting": "Cftr^F508del mice", "result": "not effective"},
      {"measurement": "epithelial protein phosphorylation", "setting": "[3]; 30 min pulse followed by 4 h PA-LPS, no pre-treatment", "result": "not effective in reducing epithelial protein phosphorylation"}
    ]},
    {"compound": "CC(=O)N[C@@H](CS)C(=O)O", "note": "[acetylcysteine]", "values": [
      {"measurement": "inflammation in ΔF508-CFTR homozygous airways", "setting": "[4]", "result": "blunts inflammation"}
    ]},
    {"compound": "COc1ccc(S(=O)(=O)N2CCN(C(C)c3nc(OC4CCCCC4)c4ccccc4n3)CC2)cc1", "note": "(centres unmarked) [VRT-325]", "values": [
      {"measurement": "ΔF508-CFTR response to a short pulse of forskolin plus genistein or VX-532 (SPQ halide efflux)", "setting": "ΔF508-CFTR [1]", "result": "only had scarce effects"}
    ]},
    {"compound": "catechin", "values": [
      {"measurement": "stimulating CFTR function (as potentiator)", "setting": "ΔF508-CFTR [2]", "result": "as effective as genistein in stimulating CFTR function"}
    ]},
    {"compound": "COc1cc(C2Oc3cc([C@H]4Oc5cc(O)cc(O)c5C(=O)[C@@H]4O)ccc3OC2CO)ccc1O", "note": "(some centres unmarked) [silybin]", "values": [
      {"measurement": "stimulating CFTR function (as potentiator)", "setting": "ΔF508-CFTR [2]", "result": "as effective as genistein in stimulating CFTR function"}
    ]},
    {"compound": "Cc1ccc(NC(=O)C2(c3ccc4c(c3)OC(F)(F)O4)CC2)nc1-c1cccc(C(=O)O)c1", "note": "[VX-809]", "values": [
      {"measurement": "lung function or CF complications", "setting": "[5]", "result": "no improvement"},
      {"measurement": "sweat chloride", "setting": "[5]", "result": "modest dose-dependent reductions"}
    ]},
    {"compound": "COc1cccc(C=NCCN=Cc2cccc(OC)c2[O-])c1[O-].[Cl-].[Mn+3]", "note": "[EUK-134]", "values": [
      {"measurement": "enabling the activity of genistein, VX-532 and VX-770 on ΔF508-CFTR", "setting": "ΔF508-CFTR [2]", "result": "enables the activity of the CFTR potentiators genistein and VX-532 as well as of the well known CFTR potentiator VX-770"},
      {"measurement": "enabling the action of CFTR potentiators genistein or VX-532 in stimulating CFTR channel function", "setting": "ΔF508-CFTR [2]", "result": "similarly effective in enabling the action of CFTR potentiators"},
      {"measurement": "ΔF508-CFTR response to a short pulse of forskolin plus genistein or VX-532 (SPQ halide efflux)", "setting": "ΔF508-CFTR [1]", "result": "rendered the cells capable of conserving ΔF508-CFTR response"},
      {"measurement": "inflammation in ΔF508-CFTR homozygous airways", "setting": "[4]", "result": "blunts inflammation"}
    ]},
    {"compound": "O=c1c(O)c(-c2ccc(O)c(O)c2)oc2cc(O)cc(O)c12", "note": "[quercetin]", "values": [
      {"measurement": "stimulating CFTR function (as potentiator)", "setting": "ΔF508-CFTR [2]", "result": "as effective as genistein in stimulating CFTR function"}
    ]},
    {"compound": "Oc1cc(O)c2c(c1)O[C@H](c1cc(O)c(O)c(O)c1)[C@H](O)C2", "note": "[epigallocatechin]", "values": [
      {"measurement": "stimulating CFTR function (as potentiator)", "setting": "ΔF508-CFTR [2]", "result": "as effective as genistein in stimulating CFTR function"}
    ]},
    {"compound": "Cn1cnc(N)c2ncnc1-2", "note": "[3-MA]", "values": [
      {"measurement": "effects of cystamine (ΔF508 re-location, reduced lung inflammation) with co-treatment during the phase of withdrawal", "setting": "Cftr^F508del mice; intraperitoneal treatment during the withdrawal phase", "result": "abrogated"}
    ]},
    {"compound": "NCCSSCCN", "note": "[cystamine]", "values": [
      {"measurement": "lung inflammation", "setting": "Cftr^F508del mice; daily inhalations of aerosolized 0.2 mg/mouse/day for one week", "result": "reduced lung inflammation"},
      {"measurement": "re-location of ΔF508 protein at the respiratory epithelial surface", "setting": "Cftr^F508del mice; [6]", "result": "persisted for 10 days after cystamine withdrawal"},
      {"measurement": "reducing lung inflammation", "setting": "Cftr^F508del mice; [6]", "result": "persisted for 10 days after cystamine withdrawal"},
      {"measurement": "signs of lung inflammation", "setting": "Cftr^F508del mice", "result": "not effective"},
      {"measurement": "enabling the activity of genistein, VX-532 and VX-770 on ΔF508-CFTR", "setting": "ΔF508-CFTR [2]", "result": "enables the activity of the CFTR potentiators genistein and VX-532 as well as of the well known CFTR potentiator VX-770"},
      {"measurement": "enabling the action of CFTR potentiators genistein or VX-532 in stimulating CFTR channel function", "setting": "ΔF508-CFTR [2]", "result": "similarly effective in enabling the action of CFTR potentiators"},
      {"measurement": "ΔF508-CFTR response to a short pulse of forskolin plus genistein or VX-532 (SPQ halide efflux)", "setting": "ΔF508-CFTR [1]", "result": "rendered the cells capable of conserving ΔF508-CFTR response"},
      {"measurement": "reduction of signs of mucosal inflammation (TG2 activation and protein tyrosine phosphorylation)", "setting": "[3]; cystamine 18 h, washed, 36 h washout", "result": "persisted after 36 h of washout"},
      {"measurement": "rescue of CFTR at the epithelial surface (confocal microscopy)", "setting": "[3]; cystamine 18 h, washed, 36 h without cystamine", "result": "persisted for 36 h after cystamine withdrawal"},
      {"measurement": "inflammation in ΔF508-CFTR homozygous airways", "setting": "[4]", "result": "blunts inflammation"}
    ]}
  ]
}
